Molecular target: T1, jacalin (Artocarpus integer, UniProt P18670+P18671)
T1 construct: native tetrameric lectin isolated from jackfruit seeds; labelled with Red-NHS 2nd Generation (Alexa Fluor 647) for MST
Experiment: microscale thermophoresis with labelled jacalin; steady-state fluorescence titration also gave KD […]
Type: binding

T1 sequence (P18670 whole entry): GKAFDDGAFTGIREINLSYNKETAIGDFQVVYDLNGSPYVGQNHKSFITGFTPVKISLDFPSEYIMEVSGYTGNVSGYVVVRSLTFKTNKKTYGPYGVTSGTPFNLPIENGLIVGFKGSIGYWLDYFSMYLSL
T1 sequence (P18671 whole entry): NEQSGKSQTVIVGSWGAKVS

Compound COc1cc(/C=C/C(=O)CC(=O)/C=C/c2ccc(O)c(OC)c2)ccc1O [curcumin] has a Kd of 450 nM.

From paper PMC10743388, “Jacalin-Curcumin Complex Sensitizes the Breast Cancer MDA-MB-231 Cell Line” (International Journal of Molecular Sciences, 2023)
